The source of these data is PubChem BioAssay AID328 (DTP/NCI, 2004).

Molecules are shown by their SMILES. Inconclusive results and toxic doses are left out.

In experiment [1] the test system is BDF1 mice, P388 leukemia ip. In words: NCI In Vivo Anticancer Drug Screen. Data for tumor model P388 Leukemia (intraperitoneal) in B6D2F1 (BDF1) mice. To be noted: endpoint: mean survival time, schedule: Q01DX009 (ip), vehicle: water, higher = longer survival. Put shortly: (§1)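 T/C = treated-group survival ÷ vehicle-control survival; tumour transplanted into mice before dosing.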

In experiment [2] the test system is BDF1 mice, P388 leukemia ip, median survival T/C. The experiment is described as above. To be noted: endpoint: median survival time, higher = longer survival. Put shortly: as §1
Setting [3] is: dose: 100.0 mg/kg/injection, schedule: Q01DX009 (ip), vehicle: Klucel (hydroxypropylcellulose) (HPC).
[4] abbreviates: dose: 200.0 mg/kg/injection, schedule: Q01DX009 (ip), vehicle: Klucel (hydroxypropylcellulose) (HPC).
Setting [5] is: dose: 50.0 mg/kg/injection, schedule: Q01DX009 (ip), vehicle: saline with Tween-80.
The mark [6] stands for this setting: dose: 100.0 mg/kg/injection, schedule: Q01DX009 (ip), vehicle: saline with Tween-80.
[7] abbreviates: dose: 200.0 mg/kg/injection, schedule: Q01DX009 (ip), vehicle: saline with Tween-80.
[8] abbreviates: dose: 12.5 mg/kg/injection, schedule: Q01DX009 (ip), vehicle: saline.
[9] abbreviates: dose: 50.0 mg/kg/injection, schedule: Q01DX009 (ip), vehicle: saline.
Setting [10] is: dose: 100.0 mg/kg/injection, schedule: Q04DX003 (ip), vehicle: saline with Tween-80.
[11] abbreviates: dose: 200.0 mg/kg/injection, schedule: Q04DX003 (ip), vehicle: saline with Tween-80.
The mark [12] stands for this setting: dose: 75.0 mg/kg/injection, schedule: Q01DX009 (ip), vehicle: saline with Tween-80.

Consider `COc1cc2cnccc2cc1OCc1ccccc1`, for which the T/C is 95 % of control in experiment [1] (dose: 6.25 mg/kg/injection); 100 % of control in experiment [1] (dose: 12.5 mg/kg/injection); 106 % of control in experiment [1] (dose: 25.0 mg/kg/injection); 108 % of control in experiment [1] (dose: 50.0 mg/kg/injection); 90 % of control in experiment [1] (dose: 100.0 mg/kg/injection); 100 % of control in experiment [1] (dose: 200.0 mg/kg/injection).

For `CCCCCCCCCCCC(c1ccccc1)[N+](C)(C)Cc1ccccc1` (configuration not stated), the T/C was 100 % of control in experiment [2] (dose: 0.25 mg/kg/injection, schedule: Q01DX010 (ip), vehicle: saline); 108 % of control in experiment [2] (dose: 0.5 mg/kg/injection, schedule: Q01DX010 (ip), vehicle: saline); 116 % of control in experiment [2] (dose: 1.0 mg/kg/injection, schedule: Q01DX010 (ip), vehicle: saline); 108 % of control in experiment [2] (dose: 2.0 mg/kg/injection, schedule: Q01DX010 (ip), vehicle: saline).

With `C=C(C)COP(=O)(OCC(=C)C)OCC(=C)C`, the T/C was 104 % of control in experiment [2] (dose: 50.0 mg/kg/injection, schedule: Q01DX009 (ip), vehicle: Klucel (hydroxypropylcellulose) (HPC)); 100 % of control in experiment [2] (setting [3]); 104 % of control in experiment [2] (dose: 100.0 mg/kg/injection, schedule: Q04DX003 (ip), vehicle: Klucel (hydroxypropylcellulose) (HPC)); 109 % of control in experiment [2] (setting [4]); 95 % of control in experiment [2] (dose: 200.0 mg/kg/injection, schedule: Q04DX003 (ip), vehicle: Klucel (hydroxypropylcellulose) (HPC)); 95 % of control in experiment [2] (dose: 400.0 mg/kg/injection, schedule: Q04DX003 (ip), vehicle: Klucel (hydroxypropylcellulose) (HPC)).

In the case of `COc1nc(Cl)nc(OC)n1`, the T/C was 96 % of control in experiment [2] (dose: 25.0 mg/kg/injection, schedule: Q01DX009 (ip), vehicle: saline with Tween-80); 97 % of control in experiment [2] (setting [5]); 99 % of control in experiment [2] (setting [6]); 99 % of control in experiment [2] (setting [7]).

For `NNc1cccc(C(F)(F)F)c1`, the T/C in experiment [2] (setting [8]) is 106 % of control; in experiment [2] (dose: 25.0 mg/kg/injection, schedule: Q01DX009 (ip), vehicle: saline), 104 % of control; in experiment [2] (setting [9]), 117 % of control.

With `Nc1ncnc2c1ncn2C1(CO)OC(CO)C(O)C1O` (configuration not stated), the T/C in experiment [2] (setting [3]) was 106 % of control; in experiment [2] (setting [4]) it was 115 % of control; in experiment [2] (dose: 400.0 mg/kg/injection, schedule: Q01DX009 (ip), vehicle: Klucel (hydroxypropylcellulose) (HPC)) it was 103 % of control.

`Nc1nc(=O)n(CC(=O)c2cccs2)cc1F`: the T/C is 100 % of control in experiment [2] (setting [5]); 90 % of control in experiment [2] (setting [6]); 95 % of control in experiment [2] (setting [10]); 86 % of control in experiment [2] (setting [7]); 100 % of control in experiment [2] (setting [11]).

Take `O=C1C(O)=Cc2cn(CCO)c(=O)c3ccc(-c4ccccc4)c1c23`: the T/C in experiment [2] (dose: 50.0 mg/kg/injection, schedule: Q01DX001 (ip), vehicle: Klucel (hydroxypropylcellulose) (HPC)) was 100 % of control; in experiment [2] (dose: 100.0 mg/kg/injection, schedule: Q01DX001 (ip), vehicle: Klucel (hydroxypropylcellulose) (HPC)) it was 100 % of control; in experiment [2] (dose: 200.0 mg/kg/injection, schedule: Q01DX001 (ip), vehicle: Klucel (hydroxypropylcellulose) (HPC)), 104 % of control.

Turning to `COc1ccc(C[C@@H]2NC[C@@H](O)[C@@H]2OC(C)=O)cc1`, the T/C in experiment [2] (dose: 6.25 mg/kg/injection, schedule: Q04DX002 (ip), vehicle: saline with Tween-80) was 100 % of control; in experiment [2] (dose: 12.5 mg/kg/injection, schedule: Q04DX002 (ip), vehicle: saline with Tween-80), 106 % of control; in experiment [2] (dose: 22.0 mg/kg/injection, schedule: Q01DX009 (ip), vehicle: saline), 106 % of control; in experiment [2] (dose: 25.0 mg/kg/injection, schedule: Q04DX002 (ip), vehicle: saline with Tween-80), 100 % of control; in experiment [2] (dose: 33.0 mg/kg/injection, schedule: Q01DX009 (ip), vehicle: saline with Tween-80), 112 % of control; in experiment [2] (dose: 33.0 mg/kg/injection, schedule: Q01DX009 (ip), vehicle: saline) it was 106 % of control. Further, the T/C in experiment [2] (dose: 44.0 mg/kg/injection, schedule: Q04DX003 (ip), vehicle: saline) was 102 % of control; in experiment [2] (setting [5]) it was 113 % of control; in experiment [2] (setting [9]) it was 106 % of control; in experiment [2] (dose: 50.0 mg/kg/injection, schedule: Q04DX002 (ip), vehicle: saline with Tween-80) it was 97 % of control; in experiment [2] (dose: 66.0 mg/kg/injection, schedule: Q01DX001 (ip), vehicle: saline), 111 % of control; in experiment [2] (dose: 66.0 mg/kg/injection, schedule: Q04DX003 (ip), vehicle: saline) it was 105 % of control. Besides, the T/C in experiment [2] (setting [12]) was 113 % of control; in experiment [2] (dose: 100.0 mg/kg/injection, schedule: Q01DX001 (ip), vehicle: saline), 104 % of control; in experiment [2] (dose: 100.0 mg/kg/injection, schedule: Q01DX009 (ip), vehicle: saline), 109 % of control; in experiment [2] (dose: 100.0 mg/kg/injection, schedule: Q04DX002 (ip), vehicle: saline with Tween-80), 104 % of control; in experiment [2] (dose: 100.0 mg/kg/injection, schedule: Q04DX003 (ip), vehicle: saline) it was 111 % of control; in experiment [2] (dose: 113.0 mg/kg/injection, schedule: Q01DX009 (ip), vehicle: saline with Tween-80) it was 120 % of control. Moreover, the T/C in experiment [2] (dose: 150.0 mg/kg/injection, schedule: Q01DX001 (ip), vehicle: saline) was 107 % of control; in experiment [2] (dose: 150.0 mg/kg/injection, schedule: Q04DX003 (ip), vehicle: saline), 110 % of control; in experiment [2] (dose: 169.0 mg/kg/injection, schedule: Q01DX009 (ip), vehicle: saline with Tween-80), 116 % of control; in experiment [2] (dose: 225.0 mg/kg/injection, schedule: Q01DX001 (ip), vehicle: saline) it was 103 % of control; in experiment [2] (dose: 225.0 mg/kg/injection, schedule: Q04DX003 (ip), vehicle: saline) it was 105 % of control; in experiment [2] (dose: 338.0 mg/kg/injection, schedule: Q01DX001 (ip), vehicle: saline) it was 102 % of control.

Consider `CN1CCCN(C)CC1`, for which the T/C was 103 % of control in experiment [2] (setting [12]); 100 % of control in experiment [2] (setting [10]); 119 % of control in experiment [2] (dose: 150.0 mg/kg/injection, schedule: Q01DX009 (ip), vehicle: saline with Tween-80); 95 % of control in experiment [2] (setting [11]); 107 % of control in experiment [2] (dose: 300.0 mg/kg/injection, schedule: Q01DX009 (ip), vehicle: saline with Tween-80); 112 % of control in experiment [2] (dose: 400.0 mg/kg/injection, schedule: Q04DX003 (ip), vehicle: saline with Tween-80).

Regarding `CCN(CC)C(N)=Nc1ccc(NC(=O)c2ccc(C(=O)Nc3ccc(N=C(N)N(CC)CC)cc3)cc2)cc1`, the T/C in experiment [2] (dose: 3.12 mg/kg/injection, schedule: Q01DX009 (ip), vehicle: saline) is 151 % of control; in experiment [2] (dose: 6.25 mg/kg/injection, schedule: Q01DX009 (ip), vehicle: saline) it was 196 % of control; in experiment [2] (setting [8]), 105 % of control.
